From patent publication US20100204182A1, “ECTONUCLEOTIDASE INHIBITORS” (RHEINISCHE FRIEDRICH-WILHELMS-UNIVERSITAT BONN, priority 2006, published 2010)

Experiments:
rat NTPDase1 = target: T1, rat NTPDase1 (Rattus norvegicus, UniProt P97687); experiment: Rat NTPDase1 inhibition, in-capillary electrophoresis method (standard compounds); format: biochemical; details: read-out: NTPDase1 Ki ± SEM
T1 sequence (P97687 1-511): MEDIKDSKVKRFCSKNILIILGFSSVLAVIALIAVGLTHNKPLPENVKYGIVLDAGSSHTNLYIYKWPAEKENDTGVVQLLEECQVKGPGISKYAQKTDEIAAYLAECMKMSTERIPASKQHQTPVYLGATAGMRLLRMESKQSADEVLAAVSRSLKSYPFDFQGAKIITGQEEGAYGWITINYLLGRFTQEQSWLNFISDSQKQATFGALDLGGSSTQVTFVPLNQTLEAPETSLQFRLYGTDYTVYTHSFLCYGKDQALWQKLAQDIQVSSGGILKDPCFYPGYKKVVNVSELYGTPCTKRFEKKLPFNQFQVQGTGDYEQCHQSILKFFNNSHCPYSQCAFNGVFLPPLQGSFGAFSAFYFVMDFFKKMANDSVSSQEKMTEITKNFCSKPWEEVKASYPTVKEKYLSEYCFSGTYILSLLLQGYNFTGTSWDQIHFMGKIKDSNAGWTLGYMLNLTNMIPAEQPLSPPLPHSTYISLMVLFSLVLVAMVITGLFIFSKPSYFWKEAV

rat NTPDase2 = target: T2, rat NTPDase2 (Rattus norvegicus, UniProt O35795); experiment: Rat NTPDase2 inhibition, in-capillary electrophoresis method (standard compounds); format: biochemical; details: read-out: NTPDase2 Ki ± SEM
T2 sequence (O35795 1-495): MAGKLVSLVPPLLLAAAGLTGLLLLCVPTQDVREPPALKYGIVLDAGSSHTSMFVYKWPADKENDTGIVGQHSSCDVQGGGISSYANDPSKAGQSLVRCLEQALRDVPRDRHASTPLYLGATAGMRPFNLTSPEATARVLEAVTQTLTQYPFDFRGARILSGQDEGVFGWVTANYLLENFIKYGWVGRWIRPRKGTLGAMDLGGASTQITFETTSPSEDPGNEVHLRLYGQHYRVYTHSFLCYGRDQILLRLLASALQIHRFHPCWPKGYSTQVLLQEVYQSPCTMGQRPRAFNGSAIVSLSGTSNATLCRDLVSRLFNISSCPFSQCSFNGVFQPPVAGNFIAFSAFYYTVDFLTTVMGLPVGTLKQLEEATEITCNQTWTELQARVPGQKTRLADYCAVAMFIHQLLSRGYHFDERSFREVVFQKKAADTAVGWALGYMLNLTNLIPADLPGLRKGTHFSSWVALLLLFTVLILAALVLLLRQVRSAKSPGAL

rat NTPDase3 = target: T3, rat NTPDase3 (Rattus norvegicus, UniProt A6I415); experiment: Rat NTPDase3 inhibition, in-capillary electrophoresis method (standard compounds); format: biochemical; details: read-out: NTPDase3 Ki ± SEM
T3 sequence (A6I415 1-529): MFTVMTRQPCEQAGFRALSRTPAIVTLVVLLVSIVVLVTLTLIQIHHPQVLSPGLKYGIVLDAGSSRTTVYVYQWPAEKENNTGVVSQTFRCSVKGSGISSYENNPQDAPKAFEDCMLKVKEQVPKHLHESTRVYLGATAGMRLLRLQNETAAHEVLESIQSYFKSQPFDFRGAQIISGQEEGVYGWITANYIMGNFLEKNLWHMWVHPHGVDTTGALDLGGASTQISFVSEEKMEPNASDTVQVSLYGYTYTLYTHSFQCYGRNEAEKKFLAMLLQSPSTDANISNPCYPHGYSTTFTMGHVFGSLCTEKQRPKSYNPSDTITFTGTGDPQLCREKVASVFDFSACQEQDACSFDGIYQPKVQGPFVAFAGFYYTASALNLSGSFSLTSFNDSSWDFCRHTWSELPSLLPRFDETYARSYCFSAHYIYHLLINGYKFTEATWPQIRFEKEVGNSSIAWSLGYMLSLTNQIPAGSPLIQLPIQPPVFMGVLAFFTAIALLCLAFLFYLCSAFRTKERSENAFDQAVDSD

P2Y2 = P2Y2 (Homo sapiens, UniProt P41231); experiment: Potency of standard compounds at P2Y2 receptor; details: SEM not given
P2Y4 = P2Y4 (Homo sapiens, UniProt P51582); experiment: Potency of standard compounds at P2Y4 receptor
P2Y6 = P2Y6 (Homo sapiens, UniProt Q15077); experiment: Potency of standard compounds at P2Y6 receptor; details: for Ki: standard compounds, SEM not given
P2X1 = P2X1 (Homo sapiens, UniProt P51575); details: standard inhibitors; reference mark 15; read-out: P2X1 Ki ± SEM; cited from earlier work
human NTPDase1 = target: T4, human NTPDase1 (Homo sapiens, UniProt P49961); experiment: NTPDase inhibition assay by capillary electrophoresis (CE), NTPDase1; format: biochemical; details: CE method, ATP 320 μM, Km 17 μM, read-out: NTPDase1 Ki [μM] ± SEM
T4 sequence (P49961 1-510): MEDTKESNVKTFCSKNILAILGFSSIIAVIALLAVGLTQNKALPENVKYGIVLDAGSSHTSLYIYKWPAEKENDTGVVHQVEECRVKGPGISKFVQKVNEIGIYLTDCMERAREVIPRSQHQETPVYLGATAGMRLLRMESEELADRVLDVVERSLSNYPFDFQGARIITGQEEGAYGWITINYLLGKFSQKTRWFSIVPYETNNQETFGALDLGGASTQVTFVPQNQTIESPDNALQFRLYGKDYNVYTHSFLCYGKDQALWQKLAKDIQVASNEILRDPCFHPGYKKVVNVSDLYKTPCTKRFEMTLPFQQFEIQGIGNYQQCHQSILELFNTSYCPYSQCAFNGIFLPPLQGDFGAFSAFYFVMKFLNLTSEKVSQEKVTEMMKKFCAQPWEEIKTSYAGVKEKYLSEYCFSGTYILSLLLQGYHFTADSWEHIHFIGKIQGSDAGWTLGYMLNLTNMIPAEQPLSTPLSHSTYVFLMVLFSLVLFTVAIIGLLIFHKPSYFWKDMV
In short: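 Recombinant or native human NTPDase was run with 320 μM ATP in Hepes buffer pH 7.4 (NaCl, KCl, MgCl2, CaCl2) at 37° C for 15 min, stopped by heating at 99° C. Products were quantified by capillary electrophoresis (UV 210 nm, UMP internal standard). IC50 from 6-8 concentrations was converted to Ki by Cheng-Prusoff.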

human NTPDase2 = target: T5, human NTPDase2 (Homo sapiens, UniProt Q9Y5L3); experiment: NTPDase inhibition assay by capillary electrophoresis (CE), NTPDase2; format: biochemical; details: for inhibition at 1000 µM: read-out: NTPDase2 inhibition (%) at 1 mM
T5 sequence (Q9Y5L3 1-495): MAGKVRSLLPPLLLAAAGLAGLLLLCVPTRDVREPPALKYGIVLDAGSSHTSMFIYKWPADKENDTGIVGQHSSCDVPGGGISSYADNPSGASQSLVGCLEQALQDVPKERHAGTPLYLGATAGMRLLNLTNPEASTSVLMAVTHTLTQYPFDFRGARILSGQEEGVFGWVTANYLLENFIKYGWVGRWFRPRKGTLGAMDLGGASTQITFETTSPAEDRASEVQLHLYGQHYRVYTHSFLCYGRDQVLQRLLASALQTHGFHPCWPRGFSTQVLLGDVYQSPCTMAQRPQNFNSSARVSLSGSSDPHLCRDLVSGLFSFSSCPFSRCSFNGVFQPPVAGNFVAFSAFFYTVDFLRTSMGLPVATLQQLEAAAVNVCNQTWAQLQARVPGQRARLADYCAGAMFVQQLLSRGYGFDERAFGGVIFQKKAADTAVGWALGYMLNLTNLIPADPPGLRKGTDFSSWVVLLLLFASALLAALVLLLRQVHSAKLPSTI

hP2Y2 = hP2Y2 (Homo sapiens, UniProt P41231); experiment: Inhibition of UTP binding at hP2Y2; details: read-out: hP2Y2 % inhibition of UTP binding at 100 μM, n = 3, mean ± SEM
Experimental: (§1) In table 2 inhibition data of selected examples at human P2Y receptor subtypes were collected. It can be seen that no compound was identified that inhibited P2Y receptors at high concentrations of 100 μM and 10 μM, respectively.

hP2Y4 = hP2Y4 (Homo sapiens, UniProt P51582); experiment: Inhibition of UTP binding at hP2Y4; details: read-out: hP2Y4 % inhibition of UTP binding at 100 μM, n = 3, mean ± SEM
Experimental: as §1

rP2Y6 = rP2Y6 (Rattus norvegicus, UniProt Q63371); experiment: Inhibition of UDP binding at rP2Y6; details: read-out: rP2Y6 % inhibition of UDP binding at 100 μM, n = 3, mean ± SEM
hP2Y12 = hP2Y12 (Homo sapiens, UniProt Q9H244); experiment: Inhibition of [3H]PSB-0413 binding at hP2Y12; details: mean ± SEM, read-out: hP2Y12 % Inhibition of [^3H]PSB-0413 Binding at 10 μM, n = 3
Experimental: as §1

P2Y12 = P2Y12 (Homo sapiens, UniProt Q9H244); experiment: Potency of standard compounds at P2Y12 receptor; details: SEM not given
P2X2 = P2X2 (Homo sapiens, UniProt Q9UBL9); details: standard inhibitors; reference mark 15; read-out: P2X2 Ki ± SEM; cited from earlier work
P2X3 = P2X3 (Homo sapiens, UniProt P56373); details: standard inhibitors; reference mark 15; read-out: P2X3 Ki ± SEM; cited from earlier work
P2X5 = P2X5 (Homo sapiens, UniProt Q93086); details: standard inhibitors; reference mark 15; read-out: P2X5 Ki ± SEM; cited from earlier work
[1] = tested on: ecto-nucleotide pyrophosphatases (E-NPP); details: in words; cited from earlier work
[2] = standard compounds, SEM not given

P2Y6, sequence (Q15077 whole entry, species assumed): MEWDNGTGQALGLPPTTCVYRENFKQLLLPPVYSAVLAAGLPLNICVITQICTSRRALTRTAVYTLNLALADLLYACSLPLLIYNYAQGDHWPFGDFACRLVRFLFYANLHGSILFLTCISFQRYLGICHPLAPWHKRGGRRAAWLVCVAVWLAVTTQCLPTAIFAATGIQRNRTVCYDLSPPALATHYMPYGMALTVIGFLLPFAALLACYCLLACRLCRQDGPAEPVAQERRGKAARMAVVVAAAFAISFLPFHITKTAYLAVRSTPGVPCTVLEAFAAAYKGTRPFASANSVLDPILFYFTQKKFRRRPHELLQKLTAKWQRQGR
P2Y4, sequence (P51582 whole entry, species assumed): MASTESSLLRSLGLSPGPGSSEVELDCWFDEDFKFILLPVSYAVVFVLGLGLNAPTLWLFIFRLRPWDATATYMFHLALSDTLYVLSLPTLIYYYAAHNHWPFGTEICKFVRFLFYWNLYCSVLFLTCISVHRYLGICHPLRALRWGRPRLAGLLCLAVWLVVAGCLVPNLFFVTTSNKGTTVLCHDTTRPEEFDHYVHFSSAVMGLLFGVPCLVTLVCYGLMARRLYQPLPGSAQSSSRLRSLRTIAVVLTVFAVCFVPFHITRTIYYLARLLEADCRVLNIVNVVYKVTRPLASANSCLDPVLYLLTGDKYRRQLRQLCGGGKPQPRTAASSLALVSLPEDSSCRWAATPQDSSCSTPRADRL
P2Y2, sequence (P41231 whole entry, species assumed): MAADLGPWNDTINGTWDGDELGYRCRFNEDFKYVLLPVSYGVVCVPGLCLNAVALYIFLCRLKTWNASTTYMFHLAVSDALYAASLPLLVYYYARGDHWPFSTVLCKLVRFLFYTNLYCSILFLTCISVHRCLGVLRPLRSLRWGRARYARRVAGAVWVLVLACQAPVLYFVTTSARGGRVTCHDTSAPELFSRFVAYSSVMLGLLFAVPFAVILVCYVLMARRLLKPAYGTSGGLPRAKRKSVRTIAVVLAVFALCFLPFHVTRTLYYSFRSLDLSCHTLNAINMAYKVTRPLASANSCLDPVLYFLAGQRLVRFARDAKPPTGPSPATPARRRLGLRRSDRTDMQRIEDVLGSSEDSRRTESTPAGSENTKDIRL
P2X2, sequence (Q9UBL9 whole entry, species assumed): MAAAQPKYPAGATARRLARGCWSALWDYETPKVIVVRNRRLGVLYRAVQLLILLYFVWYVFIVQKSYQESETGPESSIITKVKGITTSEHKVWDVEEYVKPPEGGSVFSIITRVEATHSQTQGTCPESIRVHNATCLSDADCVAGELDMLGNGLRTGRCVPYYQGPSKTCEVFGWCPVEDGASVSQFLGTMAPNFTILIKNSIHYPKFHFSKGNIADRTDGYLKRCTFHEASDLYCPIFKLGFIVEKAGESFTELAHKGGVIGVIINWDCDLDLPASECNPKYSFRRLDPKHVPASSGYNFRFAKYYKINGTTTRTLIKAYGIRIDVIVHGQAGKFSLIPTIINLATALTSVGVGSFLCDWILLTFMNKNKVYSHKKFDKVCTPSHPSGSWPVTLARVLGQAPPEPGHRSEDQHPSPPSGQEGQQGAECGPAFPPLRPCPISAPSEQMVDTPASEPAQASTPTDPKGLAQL
P2X5, sequence (Q93086 whole entry, species assumed): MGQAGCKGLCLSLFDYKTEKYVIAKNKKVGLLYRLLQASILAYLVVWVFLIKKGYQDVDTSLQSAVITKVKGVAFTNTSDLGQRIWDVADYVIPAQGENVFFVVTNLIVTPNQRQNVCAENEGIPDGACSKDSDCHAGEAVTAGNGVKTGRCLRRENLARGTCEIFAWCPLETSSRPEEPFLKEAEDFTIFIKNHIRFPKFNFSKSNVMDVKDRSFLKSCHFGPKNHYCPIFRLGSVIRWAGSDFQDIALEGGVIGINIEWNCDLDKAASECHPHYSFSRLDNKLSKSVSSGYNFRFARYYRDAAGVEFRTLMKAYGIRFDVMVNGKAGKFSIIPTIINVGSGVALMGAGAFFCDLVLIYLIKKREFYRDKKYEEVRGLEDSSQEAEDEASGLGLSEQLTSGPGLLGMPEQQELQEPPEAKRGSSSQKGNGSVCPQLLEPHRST
P2X1, sequence (P51575 whole entry, species assumed): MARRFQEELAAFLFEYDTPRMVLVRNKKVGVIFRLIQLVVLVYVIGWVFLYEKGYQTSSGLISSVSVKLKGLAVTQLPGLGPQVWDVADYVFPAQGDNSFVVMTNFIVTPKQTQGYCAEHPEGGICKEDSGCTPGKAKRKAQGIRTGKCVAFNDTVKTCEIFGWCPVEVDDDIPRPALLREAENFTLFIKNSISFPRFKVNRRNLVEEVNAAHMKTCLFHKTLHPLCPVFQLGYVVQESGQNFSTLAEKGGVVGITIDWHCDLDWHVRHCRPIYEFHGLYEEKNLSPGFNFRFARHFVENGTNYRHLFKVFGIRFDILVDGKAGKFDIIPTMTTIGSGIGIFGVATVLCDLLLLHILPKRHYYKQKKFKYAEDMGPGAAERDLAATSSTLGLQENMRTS
hP2Y12, sequence (Q9H244 whole entry): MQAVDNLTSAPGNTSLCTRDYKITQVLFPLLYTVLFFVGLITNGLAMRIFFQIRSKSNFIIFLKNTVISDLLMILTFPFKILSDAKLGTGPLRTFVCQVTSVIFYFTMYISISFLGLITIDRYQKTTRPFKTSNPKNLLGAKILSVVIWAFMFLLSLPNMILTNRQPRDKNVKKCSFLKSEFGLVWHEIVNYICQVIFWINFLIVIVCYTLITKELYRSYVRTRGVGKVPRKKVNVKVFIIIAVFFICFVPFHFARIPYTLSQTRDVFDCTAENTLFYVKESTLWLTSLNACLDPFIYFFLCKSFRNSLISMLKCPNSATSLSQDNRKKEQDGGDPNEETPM
hP2Y4, sequence (P51582 whole entry): as the sequence (P51582 whole entry, species assumed) above
hP2Y2, sequence (P41231 whole entry): as the sequence (P41231 whole entry, species assumed) above
rP2Y6, sequence (Q63371 whole entry): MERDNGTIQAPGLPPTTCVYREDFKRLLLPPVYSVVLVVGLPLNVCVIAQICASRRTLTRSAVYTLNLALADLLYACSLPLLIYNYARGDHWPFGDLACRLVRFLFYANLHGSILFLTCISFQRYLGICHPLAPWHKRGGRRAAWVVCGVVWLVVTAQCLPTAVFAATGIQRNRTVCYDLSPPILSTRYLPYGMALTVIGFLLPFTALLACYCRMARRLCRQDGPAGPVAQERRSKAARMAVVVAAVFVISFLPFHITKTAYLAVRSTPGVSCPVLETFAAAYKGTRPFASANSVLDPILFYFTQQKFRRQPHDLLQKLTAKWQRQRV
P2X3, sequence (P56373 whole entry, species assumed): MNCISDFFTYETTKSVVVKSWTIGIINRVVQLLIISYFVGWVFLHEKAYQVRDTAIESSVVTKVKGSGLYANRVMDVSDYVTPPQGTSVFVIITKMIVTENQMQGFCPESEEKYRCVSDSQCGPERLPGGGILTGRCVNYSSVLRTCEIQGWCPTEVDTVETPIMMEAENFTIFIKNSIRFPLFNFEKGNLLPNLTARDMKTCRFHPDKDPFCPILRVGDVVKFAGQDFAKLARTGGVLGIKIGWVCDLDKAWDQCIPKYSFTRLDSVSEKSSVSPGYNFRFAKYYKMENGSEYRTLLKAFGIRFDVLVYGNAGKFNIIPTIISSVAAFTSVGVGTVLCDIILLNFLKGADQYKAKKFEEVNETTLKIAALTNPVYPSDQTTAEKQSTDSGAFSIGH
P2Y12, sequence (Q9H244 whole entry, species assumed): as the sequence (Q9H244 whole entry) above

Row | SMILES | Ki (rat NTPDase1) | Ki (rat NTPDase2) | Ki (rat NTPDase3) | Ki (P2X1) | Ki (human NTPDase1) | Ki (human NTPDase2) | inhibition at 1000 µM (human NTPDase2) | inhibition at 100 µM (hP2Y2) | inhibition at 100 µM (hP2Y4) | inhibition at 100 µM (rP2Y6) | inhibition at 10 µM (hP2Y12) | Ki (P2Y2) | Ki (P2Y6) | Ki (P2X2) | Ki (P2X5) | further results
1 | Cc1nc(N=Nc2ccc(S(=O)(=O)O)cc2S(=O)(=O)O)c(COP(=O)(O)O)c(C=O)c1O [PPADS, pyridoxalphosphate-6-azophenyl-2′,4′-disulfonic acid] | 46 ± 0.01 µM | 44.2 ± 0.03 µM | 3 ± 0.001 µM | 130 nM | – | – | – | – | – | – | – | – | – | – | – | P2Y2 Ki ± SEM [μM] (P2Y2): inactive; P2Y4 inhib. at 100 μM (P2Y4; 100 μM): 73%; P2Y6 inhib. at 100 μM (P2Y6; 100 μM): 69%
2 | CCOP(=O)(OCC)C(NC(=O)CCCNC(=O)[C@H]1O[C@@H](n2ccc(=O)[nH]c2=O)C(O)C1O)P(=O)(OCC)OCC (stereo in doubt) [Compound 12, 4-[(2S,3R,4S,5R)-5-(2,4-Dioxo-3,4-dihydropyrimidin-1(2H)-yl)-3,4-dihydroxytetrahydrofurane-2-carboxamido]butaneamidomethylenediphosphonic acid tetraethylester] | – | – | – | – | 32.4 ± 1.1 µM | ~165 µM | 54% | -44 ± 20% | 27 ± 7% | 18 ± 4% | 1 ± 5% | – | – | – | – | –
3 | Nc1c(S(=O)(=O)O)cc(Nc2ccc(Nc3nc(Cl)nc(Nc4cccc(S(=O)(=O)O)c4)n3)c(S(=O)(=O)O)c2)c2c1C(=O)c1ccccc1C2=O [RB2, reactive blue 2] | – | – | – | 2000 nM | – | – | – | – | – | – | – | 1 µM | 31 µM | 0.4 µM | 20 µM | Ki (P2Y4; [2]): > 100 µM; Ki (P2Y12): 1300 nM; Ki (P2X3): 50 µM
4 | CCN(CC)c1ncnc2c1ncn2C1OC(COP(=O)(O)OP(=O)(O)C(Br)(Br)P(=O)(O)O)C(O)C1O (stereo not drawn) [ARL67156, N^6-Diethyl-β,γ-dibromomethylene-ATP] | 27 ± 0.004 µM | > 600 µM | 112.1 ± 0.05 µM | – | – | – | – | – | – | – | – | – | – | – | – | metabolic stability towards ecto-nucleotide pyrophosphatases (E-NPP) [1]: metabolically unstable
5 | Cc1ccc(C(=O)Nc2ccc(S(=O)(=O)O)c3cc(S(=O)(=O)O)cc(S(=O)(=O)O)c23)cc1NC(=O)c1cccc(NC(=O)Nc2cccc(C(=O)Nc3cc(C(=O)Nc4ccc(S(=O)(=O)O)c5cc(S(=O)(=O)O)cc(S(=O)(=O)O)c45)ccc3C)c2)c1 [Suramin, suramin] | 300 ± 0.1 µM | 65.4 ± 0.01 µM | 12.7 ± 0.03 µM | – | – | – | – | – | – | – | – | 50 µM | > 100 µM | 10 µM | 1.6 µM | P2Y4 Ki ± SEM [μM] (P2Y4; [2]): inactive
6 | CCOP(=O)(OCC)C(NC(=O)CCNC(=O)[C@H]1O[C@@H](n2ccc(=O)[nH]c2=O)C(O)C1O)P(=O)(OCC)OCC (stereo in doubt) [Compound 11, 3-[(2S,3R,4S,5R)-5-(2,4-Dioxo-3,4-dihydropyrimidin-1(2H)-yl)-3,4-dihydroxy-tetrahydrofurane-2-carboxamido]propaneamidomethylenediphosphonic acid tetraethylester] | – | – | – | – | 325 ± 25 µM | ~175 µM | 51% | -12 ± 24% | 7 ± 20% | 14 ± 2% | 1 ± 5% | – | – | – | – | –
